US8518993B2, “Combination of bioavailable methionine with at least one essential oil” (Adisseo Ireland Ltd., priority 2005, dated 2013)

System: ileal flora of meat chicken
Assay: Gas production in vitro by ileal contents of meat chicken (wheat-based diet)
Assay type: cell-based
From the text: The purpose of the following tests is to compare the production of gas by the flora of the ileal contents of meat chicken, in relation to various test parameters. The production of gas is an indirect indicator of the bacterial activity of the ileal flora of the chicken.
50 meat chicken are raised with a wheat-based diet. These chicken are raised with the same nutritional regimen. The chicken are sacrificed on the 35th day, then the contents of their ileum are removed in anaerobic conditions. The contents are placed in bottles which are stored at −18° C.
Based on the experimental design described in Table I below, the volume of gas produced is measured as a function of time.
48 bottles are filled successively with:
the treatment (nothing for the negative control, HMTBA, EO or the test item),
90 ml of buffer solution, containing wheat starch (nutrient medium for the bacteria); the function of this buffer solution is to maintain a constant pH and suppress O2
10 ml of inoculum, comprising a mixture of ¼ of ileal contents and ¾ of sterile physiological solution, which is filtered and homogenized before filling.
The doses tested are calculated to be representative of the concentrations of the products that would be found in the gastrointestinal contents of the animals.
Using the experimental design described in Table I above, curves of the volume of gas produced as a function of time are obtained, and are mostly sigmoidal.
These curves are modelled according to the following model: Y=A/(1+(C/t)^B) where
A, B and C=parameters of the model
Using these equations, we then analyse the modelled final volume Vf (Vf=A), as well as the time for which the rate of production of gas is maximum, called Trm (this time is used as an indirect measure of the latency, which is not accessible with this model). […] If the probability of the treatment effect is significant, i.e. if p<0.05, the means are then compared by the Fisher PLSD test, which makes it possible to establish the differences on the means between the various treatments.
The experimental conditions and parameters of Example 1 are repeated in Example 2, according to Table III below.
The experimental conditions and parameters of example 1 are repeated in Example 3, according to Table V below.
The experimental conditions and parameters of Example 1 are repeated in example 4, according to Table VII below.
For this test, ileal flora derived from 35-day-old chickens fed with a wheat-based diet is used.
In this test, one of the mixtures tested in Example 1 is tested.

[1] = Example 1, wheat-based diet, HMTBA 83 mg, EO 28-50 mg per bottle (Table I), 4 repetitions
[2] = Example 2, HMTBA 83 mg, EO 15 mg (Table III), EO1 red thyme, EO2 tea tree
[3] = Example 3, HMTBA 83 mg, EO 15 mg (Table V), EO1 cinnamon
[4] = Example 4, HMTBA 83 mg, MEO 15 mg (Table VII), MEO 3/4 tea tree and 1/4 cinnamon
[5] = Example 8, HMTBA 113 mg, origanum oil 13 mg (Table XII)

“2-hydroxy-4-methylthiobutanoic acid [HMTBA]” was tested, and the “Effect on bacterial activity measured by Trm (in words)” value (Example 1) was “little if any effect”, the “Trm: time for which the rate of production of gas is maximum, Mean” value [1] was 10.8 h and the “Vf: final volume of gas produced, Mean” value [1] was 565 mL. For the same substance, the “Trm: time for which the gas production rate is at a maximum, Mean” value (“Trm: time … at a maximum, Mean” for short) [2] was 20.3 h, the “Vf: final volume of gas produced, Mean” value [2] was 296.2 mL and the “Trm: time … at a maximum, Mean” value [3] was 28.1 h. For the same substance, the “Vf: final volume of gas produced, Mean” value [3] was 334.3 mL, the “Trm: time … at a maximum, Mean” value [4] was 15.4 h and the “Vf: final volume of gas produced, Mean” value [4] was 421 mL. The “Trm difference with the negative control” value (Example 4, negative control Trm 11.1 h) was 4.3 h, the “Effect on fermentation / activity of the bacterial flora (in words)” value (Example 8) was “no significant effect” and the “Trm, Means” value [5] was 16.2 h. For the same substance, the “Vf, Means” value [5] was 353 mL.
